Experimental data from ChEMBL document CHEMBL1201862, “PubChem BioAssay data set” (2004).
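Where inhibition never reached the appropriate level, the endpoint shown equals the highest concentration tested. Otherwise, values were interpolated linearly from a five-concentration, 48-hour dose response in 96-well plates. Here, GI50 denotes the concentration required for 50% inhibition of growth.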 The source made the active and inactive calls. Rule as the data show it: active = GI50 up to about 1.1 µM and inactive = higher.

Columns and labels:
Assay in all cases: DTP human tumour cell line panel, 48 h
[1] = tested on: IGROV-1
[2] = tested on: MDA-N
[3] = tested on: SF-539
[4] = tested on: ACHN
[5] = tested on: CAKI-1
[6] = tested on: PC-3
[7] = tested on: SF-268
[8] = tested on: HOP-62
[9] = tested on: TK-10
[10] = tested on: NCI-H522
[11] = tested on: K562
[12] = tested on: SNB-75
[13] = tested on: MDA-MB-435
[14] = tested on: KM12
[15] = tested on: 786-0
[16] = tested on: OVCAR-3
[17] = tested on: OVCAR-8
[18] = tested on: HCC 2998
[19] = tested on: A498
[20] = tested on: U-251

Compound	GI50 [1]	GI50 [2]	GI50 [3]	GI50 [4]	GI50 [5]	GI50 [6]	GI50 [7]	GI50 [8]	GI50 [9]	GI50 [10]	GI50 [11]	GI50 [12]	GI50 [13]	GI50 [14]	GI50 [15]	GI50 [16]	GI50 [17]	GI50 [18]	GI50 [19]	GI50 [20]
[N-]=[N+]=Nc1c(Cc2ccccc2)c(Cl)nc2ccccc12	26.6 µM (inactive)	21.9 µM (inactive)	21.7 µM (inactive)	25.1 µM (inactive)	21.4 µM (inactive)	25.6 µM (inactive)	33.6 µM (inactive)	22.4 µM (inactive)	23.8 µM (inactive)	27.5 µM (inactive)	23.9 µM (inactive)	22.6 µM (inactive)	13.6 µM (inactive)	16.3 µM (inactive)	35.6 µM (inactive)	12.5 µM (inactive)	20.8 µM (inactive)	49.4 µM (inactive)	26.2 µM (inactive)	
COc1ccc(C(OCC2OC(n3ccc(NC(=O)c4ccccc4)nc3=O)C(O)C2O)(c2ccccc2)c2ccccc2)cc1 (stereo not given)	2.08 µM (inactive)	1.92 µM (inactive)	2.34 µM (inactive)	2.9 µM (inactive)	2.93 µM (inactive)	3.09 µM (inactive)	5.18 µM (inactive)	2.34 µM (inactive)		2.48 µM (inactive)	2.38 µM (inactive)	9.55 µM (inactive)	2.63 µM (inactive)	21.1 µM (inactive)	2.12 µM (inactive)	1.69 µM (inactive)	1.78 µM (inactive)	3.4 µM (inactive)	1.62 µM (inactive)	1.92 µM (inactive)
CC1(C)Oc2ccc3ccc(=O)oc3c2C(O)C1O (stereo not given)	33.2 µM (inactive)	35.1 µM (inactive)	22.9 µM (inactive)	44.6 µM (inactive)	67.1 µM (inactive)	31.6 µM (inactive)	40.6 µM (inactive)	36.1 µM (inactive)		33.7 µM (inactive)	37.6 µM (inactive)	38.8 µM (inactive)	33.7 µM (inactive)	31.9 µM (inactive)	45 µM (inactive)	37.2 µM (inactive)	34 µM (inactive)	> 100 µM (inactive)	> 100 µM (inactive)	38.3 µM (inactive)
CC(=O)c1c2c(cc3c1CC1(Cc4cc5c(cc4C1)CCCC5)C3)CCCC2	45 µM (inactive)	16.4 µM (inactive)	> 100 µM (inactive)	6.49 µM (inactive)		51.4 µM (inactive)		> 100 µM (inactive)	> 100 µM (inactive)	20.9 µM (inactive)	9.66 µM (inactive)	< 0.01 µM (active)	16.9 µM (inactive)	> 100 µM (inactive)	> 100 µM (inactive)	27.2 µM (inactive)	> 100 µM (inactive)	> 100 µM (inactive)	56.6 µM (inactive)	> 100 µM (inactive)
O=C1CCSc2c(cnc3ccccc23)N1	> 100 µM (inactive)	> 100 µM (inactive)	59.3 µM (inactive)	> 100 µM (inactive)	56.8 µM (inactive)	49.7 µM (inactive)	> 100 µM (inactive)	> 100 µM (inactive)	71.6 µM (inactive)	> 100 µM (inactive)	> 100 µM (inactive)	27.7 µM (inactive)	> 100 µM (inactive)	> 100 µM (inactive)	> 100 µM (inactive)	65.5 µM (inactive)	> 100 µM (inactive)		32.1 µM (inactive)	> 100 µM (inactive)
Cc1nnc2sc(Cl)nn12	16.4 µM (inactive)	20.2 µM (inactive)	20.9 µM (inactive)	23.3 µM (inactive)	21 µM (inactive)	17.2 µM (inactive)		38 µM (inactive)	27.7 µM (inactive)	10 µM (inactive)	8.05 µM (inactive)	45.3 µM (inactive)	7.64 µM (inactive)	14.5 µM (inactive)	26.5 µM (inactive)	19 µM (inactive)	32.9 µM (inactive)	15.5 µM (inactive)	31.3 µM (inactive)	16.4 µM (inactive)
O=C1NC(=S)N/C1=C\c1ccc(Br)s1	93.5 µM (inactive)	> 100 µM (inactive)		> 100 µM (inactive)	70.6 µM (inactive)	94.2 µM (inactive)	> 100 µM (inactive)	> 100 µM (inactive)	52 µM (inactive)	82.8 µM (inactive)	34.8 µM (inactive)		58.6 µM (inactive)	> 100 µM (inactive)	> 100 µM (inactive)	71.8 µM (inactive)		57.8 µM (inactive)	34.3 µM (inactive)	> 100 µM (inactive)
